According to patent US20090214696A1, “Lycopene Incorporation Into Egg Yolks” (priority 2005, published 2009):
Like-named read-outs stand apart in the source and are kept apart here. Values belong to the compound of their own block, whether it stands above or below them.

Legend:
[1] = Study 1: yolk and plasma lycopene/lutein by UV/VIS spectrophotometer; assay type: in vivo, second cycle laying hens (Hyline W36); conditions: Diet 4: 48 mg lycopene + 6.5 mg Lutein/kg diet, 19 d
Protocol: Lycopene is a carotenoid with potential anti-cancer functions. […] Therefore, second cycle laying hens (Hyline W36) were examined for their ability to absorb dietary lycopene and incorporate lycopene into egg yolks. A completely randomized design was used in which 3 levels of dietary lycopene (0, 1.0 and 5.7 mg/bird*day) or lycopene +lutein (5.7 mg lycopene+0.8 mg lutein/bird*day) were incorporated into the birds normal diet. Birds were housed in commercial cages with ad libitum access to water (n=3 cages/diet; 5 birds/cage), and were fed 120 g diet/bird*day. […] Future trials will examine increased dietary lycopene levels and routes of administration.
Commercial laying hen diet (corn, soybean, from NuWest) was supplemented with lycopene and lutein (DSM). Second Cycle Hyline W36 Hens were housed in standard lay cages. Dependant Variables: Yolks and Plasma. Lipid Extraction was done as previously described (Koutsos at al. 2003 J Nutr 133:1132-1138). A UV/VIS spectrophotometer was use to measure absorbance at 464 nm for Lutein and 352 nm for Lycopene. For Studies 2 and 3, the Roche Colour Score was taken of egg yolks using a blind analysis. The following statistics were calculated: ANOVA for main effect of diet+days on diet and interactions and t-test for differences between means. Results were significant at p<0.05. […]

[2] = Study 2: Roche Yolk Colour Fan; assay type: in vivo, Second Cycle Hyline W36 Hens; conditions: 880 or 5140 mg lycopene/kg diet or 7.8 mg Lutein/kg diet dispersed in H2O, 19 d
Text: (§1) Commercial laying hen diet (corn, soybean, from NuWest) was supplemented with lycopene and lutein (DSM). Second Cycle Hyline W36 Hens were housed in standard lay cages. Dependant Variables: Yolks and Plasma. Lipid Extraction was done as previously described (Koutsos at al. 2003 J Nutr 133:1132-1138). A UV/VIS spectrophotometer was use to measure absorbance at 464 nm for Lutein and 352 nm for Lycopene. For Studies 2 and 3, the Roche Colour Score was taken of egg yolks using a blind analysis. The following statistics were calculated: ANOVA for main effect of diet+days on diet and interactions and t-test for differences between means. Results were significant at p<0.05.
(§2) In Study 2, 5 hens were housed per cage and 3 cages were given treatment for 19 d on a diet at 100 g diet/bird*d. Lycopene and Lutein levels were increased and dispersed in H2O: Diet 1: Negative Control+3000 ml H2O; Diet 2: Negative Control+880 mg lycopene/kg diet +3000 ml H2O; Diet 3: Negative Control+5140 mg lycopene/kg diet+3000 ml H2O; Diet 4: Negative Control+7.8 mg Lutein/kg diet+3000 ml H2O. The Roche Yolk Colour Fan was used (FIG. 4, 5). […] Diet had no effect on Yolk Lutein and/or Lycopene (p>0.20 for all). Diet on Plasma lycopene had no effect (p=0.17). Plasma Lutein+Lycopene had no effect (p=0.07). Diet on Plasma Lutein: (p=0.04).

[3] = Study 2: yolk and plasma lycopene/lutein by UV/VIS spectrophotometer; assay type: in vivo, Second Cycle Hyline W36 Hens
Text: as §1, §2

[4] = egg vs vegetable sources; cited from earlier work
[5] = Roche yolk color score of eggs from hens fed lycopene (Example 1 trial); assay type: in vivo, White Leghorn laying hens; conditions: 65, 257 or 650 mg lycopene/kg diet vs 0 mg, 15 days, p<0.05
Text: (§3) The purpose of this trial was to examine the ability of the laying hen to deposit lycopene into the egg yolk for the purpose of supplementing human diets with additional lycopene. Control egg-laying hens were fed a 100 gram per bird basal diet for 15 days described in Table 1. Test hens were fed the basal diet supplemented with varying amounts of lycopene.
The California Polytechnic State University Animal Care and Use Committee approved all protocols. Using a completely randomized design, first-cycle White Leghorn (Hyline W36 strain, 23 wks old) laying hens from the Cal Poly University flock were randomly assigned to one of three dietary lycopene levels. Birds were fed a basal diet formulated to meet or exceed all nutrient requirements for laying hens (National Research Council 1994 Nutrient requirements of Poultry, Ninth Revised Edition, National Academy Press, Washington, D.C.) plus either 0, 65, 257, or 650 mg lycopene/kg diet; the lycopene provided was the all-trans isomer. Dietary levels were chosen based on the amount of lycopene contained in an uncooked 100 g tomato, as well as data concerning the absorption of lutein by laying hens (Leeson, S. and Caston, L. 2004 Poultry Science 83:1709-1712). Lycopene was supplied in a 5% powder form attached to a gelatin molecule. […]

[6] = Yolk lycopene concentration by HPLC in eggs from hens fed lycopene (Example 1 trial); assay type: in vivo, White Leghorn laying hens
Text: as §3
The California Polytechnic State University Animal Care and Use Committee approved all protocols. Using a completely randomized design, first-cycle White Leghorn (Hyline W36 strain, 23 wks old) laying hens from the Cal Poly University flock were randomly assigned to one of three dietary lycopene levels. Birds were fed a basal diet formulated to meet or exceed all nutrient requirements for laying hens (National Research Council 1994 Nutrient requirements of Poultry, Ninth Revised Edition, National Academy Press, Washington, D.C.) plus either 0, 65, 257, or 650 mg lycopene/kg diet; the lycopene provided was the all-trans isomer. Dietary levels were chosen based on the amount of lycopene contained in an uncooked 100 g tomato, as well as data concerning the absorption of lutein by laying hens (Leeson, S. and Caston, L. 2004 Poultry Science 83:1709-1712). Lycopene was supplied in a 5% powder form attached to a gelatin molecule. In order for lycopene to be absorbed from this source, water (60° C.) was used to disperse the lycopene prior to dietary addition.
Hens were housed in commercial-type cages (n=3 cages/diet, 4 birds/cage, 135 sq. inches/bird) with ad libitum access to water. Hens were fed their assigned diets at 100 g/bird*day for 15 days. Eggs were gathered daily, and after 15 days of dietary feeding, analysis of egg lycopene levels were completed by Roche color score (a standardized set of color swatches corresponding to a number from 1-15) and by HPLC analysis (DSM International, Basel Switzerland).

[7] = Study 1: Roche color fan of egg yolks; assay type: in vivo, second cycle laying hens (Hyline W36); conditions: 0, 1.0 and 5.7 mg lycopene/bird*day, after 18 d
[8] = Study 3: Roche Yolk Colour Fan; assay type: in vivo, Second Cycle Hyline W36 Hens; conditions: control diet vs diets >1285 mg Lycopene, 15 d
Text: as §1
(§4) In Study 3, 5 hens were housed per cage and 1 cage received treatment for 15 d on diet at 100 g diet/bird*d. Lycopene levels were increased and dispersed in H2O: Diet 1: Negative Control+3000 ml H2O; Diet 2: Negative Control+880 mg lycopene/kg diet+3000 ml H2O; Diet 3: Negative Control+1285 mg lycopene/kg diet+3000 ml H2O; Diet 4: Negative Control +2570 mg lycopene/kg diet+3000 ml H2O; Diet 5: Negative Control+3855 mg lycopene/kg diet+3000 ml H2O; Diet 6: Negative Control+5140 mg lycopene/kg diet+3000 ml H2O; Diet 7: Negative Control+6425 mg lycopene/kg diet+3000 ml H2O; Diet 8: Diet 5+7.8 mg Lutein/kg diet; Diet 9: Diet 7+7.8 mg Lutein/kg diet.

[9] = Study 3: yolk and plasma lycopene/lutein by UV/VIS spectrophotometer; assay type: in vivo, Second Cycle Hyline W36 Hens
Text: as §1, §4

[10] = acute toxicity, mice; cited from earlier work
[11] = acute toxicity, rats; cited from earlier work

Yolk lutein ([1]; p<0.05): increased
Plasma lutein ([1]; p=0.36): no increase
Yolk lutein ([3]; effect of diet, Study 2, p>0.20): no effect
Structure (SMILES): CC1=C[C@H](O)CC(C)(C)[C@H]1/C=C/C(C)=C/C=C/C(C)=C/C=C/C=C(C)/C=C/C=C(C)/C=C/C1=C(C)C[C@@H](O)CC1(C)C [lutein]
Roche Colour Fan score [2]: no effect
Absorbance from egg relative to absorbance from vegetable sources [4]: approximately 2.12 times

Structure (SMILES): CC(C)=CCC/C(C)=C/C=C/C(C)=C/C=C/C(C)=C/C=C/C=C(C)/C=C/C=C(C)/C=C/C=C(\C)CCC=C(C)C [lycopene]
Roche yolk color score [5]: significantly greater yolk color score
Yolk lycopene levels (HPLC) ([6]; 257 or 650 mg lycopene/kg diet vs 65 mg/kg diet, 15 days, p<0.05): significantly greater lycopene levels
concentration at 15 days ([6]; female, White Leghorn (Hyline W36), chicken (laying hen), egg yolk, oral, based upon HPLC data, large egg, read-out: Maximal concentration of yolk lycopene (converted)): 4710 ng/g
Dietary level for optimal lycopene incorporation into egg (regression analysis) ([6]; regression of yolk lycopene on dietary lycopene): 420 mg/kg diet
Egg yolk pigmentation (Roche color fan) [7]: no detectable change in pigmentation
Roche Colour Fan score [2]: 5140 mg>0 mg
Plasma Lutein+Lycopene ([3]; in vivo): no effect
Plasma lycopene ([3]; in vivo): no effect
Yolk Lycopene ([3]; in vivo): no effect
Yolk pigment (Roche color scores) [8]: consistent difference in yolk pigment
Yolk Lycopene ([9]; effect of diet, Study 3, p<0.01, Diets 2, 3 = 880, 1285 mg lycopene/kg diet): Diet 2, 3>1, 4, 5, 6, 8, 9
Yolk Lutein+Lycopene ([9]; effect of diet, Study 3, p=0.94): no effect
Plasma Lutein and/or Lycopene ([9]; in vivo): no effect
LD50 [10]: 3000 mg lycopene/kg body weight
LD50 [11]: 10,000 mg/kg body weight
